Measured values taken from US8772285B2, “Benzothiazoles having histamine H3 receptor activity” (High Point Pharmaceuticals, LLC, priority 2006, dated 2014).
Counter-ions that a name gives are not always drawn.

Experiments:
human H3 receptor = human H3 receptor (Homo sapiens (Human), UniProt Q9Y5N1); assay: Functional assay II, [35S]GTPγS assay; assay type: biochemical; conditions: membranes from CHO cells stably expressing the human H3 receptor
Method: The ability of the compounds to bind and interact with the human H3 receptor as agonists, inverse agonists and/or antagonists, is determined by a functional assay, named [^35S]GTPγS assay. The assay measures the activation of G proteins by catalyzing the exchange of guanosine 5′-diphosphate (GDP) by guanosine 5′-triphosphate (GTP) at the -subunit. The GTP-bounded G proteins dissociate into two subunits, GGTP and Gβγ, which in turn regulate intracellular enzymes and ion channels. GTP is rapidly hydrolysed by the G-sub-unit (GTPases) and the G protein is deactivated and ready for a new GTP exchange cycle. […] GTPγS, a non-hydrolysed analogue of GTP, is determined. This process can be monitored in vitro by incubating cell membranes containing the G protein coupled receptor H3 with GDP and [^35S] […] This procedure is repeated twice except for the last homogenization step, the protein concentration is determined, and membranes are diluted to a protein concentration of 2 mg/ml, aliquoted and kept at −80° C. until use.
In order to study the presence and the potency of an inverse agonist/antagonist, the H3-receptor agonist ligand R-α-methyl histamine (RAMHA) is added. The ability of the test compound to counteract the effect of RAMHA is measured. […] The plates are centrifuged at 1500 rpm for 10 min and the radioactivity is measured using a Top-counter. […]

[1] = system: Sprague-Dawley (SD) male rats; assay: Open cage schedule-fed rat model; assay type: in vivo; conditions: dose 15 mg/kg p.o.
Method: The ability of the present compounds to reduce weight is determined using the in vivo open cage Schedule-fed rat model.
Sprague-Dawley (SD) male rats of an age of about 1½ to 2 months and a weight of about 200-250 g are purchased from Møllegård Breeding and Research Centre A/S (Denmark). On arrival they are allowed some days of acclimatisation before being placed in individual open plastic cages. They are habituated to the presence of food (Altromin pelleted rat chow) in their home cage for only 7 hours each day (from 07.30 to 14.30, seven days a week). Water is present ad libitum. Once the consumption of food has stabilised after 7 to 9 days, the animals are ready for use.
Each animal is used only once to avoid carry-over effects between treatments. During the test sessions, the test compound is administered intraperitoneally or orally 30 min before the start of the sessions. One group of animals is administered the test compound at different doses, and a control group of animals receives vehicle. Food and water intake are monitored at 1, 2 and 3 hours post administration.
Any side effects (manifested as barrel-rolling, bushy fur etc.) may rapidly be detected, since the animals are kept in transparent plastic cages to enable continuous monitoring.

Chain of human H3 receptor (Q9Y5N1 whole entry): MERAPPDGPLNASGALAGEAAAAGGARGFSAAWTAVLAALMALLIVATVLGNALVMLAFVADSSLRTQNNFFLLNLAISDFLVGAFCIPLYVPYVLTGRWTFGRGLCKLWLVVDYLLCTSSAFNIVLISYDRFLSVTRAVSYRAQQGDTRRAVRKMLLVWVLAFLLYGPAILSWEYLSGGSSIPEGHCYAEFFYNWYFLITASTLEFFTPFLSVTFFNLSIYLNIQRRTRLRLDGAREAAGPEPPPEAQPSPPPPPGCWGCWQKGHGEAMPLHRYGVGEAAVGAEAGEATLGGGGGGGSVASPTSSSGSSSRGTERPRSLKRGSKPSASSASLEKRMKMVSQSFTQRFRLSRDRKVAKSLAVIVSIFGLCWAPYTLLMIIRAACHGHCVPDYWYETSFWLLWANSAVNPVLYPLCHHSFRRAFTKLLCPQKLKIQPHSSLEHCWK

SMILES | Ki (human H3 receptor) | Open cage schedule-fed rat model, food intake at 3 h [1]
c1cc2nc(N3CCN(C4CC4)CC3)sc2cc1CNC1CC1 [Example 27, Cyclopropyl-[2-(4-cyclopropylpiperazin-1-yl)benzothiazol-6-ylmethyl]-amine, trifluoroacetate] | 0.9 nM | 82.9 % of vehicle
O=C(O)C(F)(F)F.c1cc2nc(N3CCN(C4CC4)CC3)sc2cc1CN1CCCC1 [Example 17, 2-(4-Cyclopropylpiperazin-1-yl)-6-(pyrrolidin-1-ylmethyl)benzothiazole, trifluoroacetate] | 1.8 nM | 81.2 % of vehicle
